Measurements: ChEMBL document CHEMBL4373745, “Design, synthesis and cytotoxicity of BODIPY FL labelled triterpenoids” (Eur J Med Chem, 2020)

Assays:
[1] = system: A-375; test: Cytotoxicity against human A375 cells assessed as reduction in cell viability incubated for 96 hrs by SRB assay; type: functional, cell-based; settings: A-375, 96 h
[2] = system: HT-29; test: Cytotoxicity against human HT-29 cells assessed as reduction in cell viability incubated for 96 hrs by SRB assay; type: functional, cell-based; settings: HT-29, 96 h
[3] = system: FaDu; test: Cytotoxicity against human FADU cells assessed as reduction in cell viability incubated for 96 hrs by SRB assay; type: functional, cell-based
[4] = system: NIH3T3; test: Cytotoxicity against mouse NIH/3T3 cells assessed as reduction in cell viability incubated for 96 hrs by SRB assay; type: cell-based; settings: NIH3T3, 96 h
[5] = system: MCF7; test: Cytotoxicity against human MCF7 cells assessed as reduction in cell viability incubated for 96 hrs by SRB assay; type: functional, cell-based; settings: MCF7, 96 h
[6] = system: A2780; test: Cytotoxicity against human A2780 cells assessed as reduction in cell viability incubated for 96 hrs by SRB assay; type: functional, cell-based; settings: A2780, 96 h

| Compound | EC50 [1] | EC50 [2] | EC50 [3] | EC50 [4] | EC50 [5] | EC50 [6] |
| --- | --- | --- | --- | --- | --- | --- |
| C=C(C)[C@@H]1CC[C@]2(CO)CC[C@]3(C)[C@H](CC[C@@H]4[C@@]5(C)CC[C@H](OC(C)=O)C(C)(C)[C@@H]5CC[C@]43C)[C@@H]12 | > 30 µM | > 30 µM | > 30 µM | > 30 µM | – | – |
| CC(=O)O[C@H]1CC[C@]2(C)[C@H]3CC=C4[C@@H]5[C@@H](C)[C@H](C)CC[C@]5(C(=O)NCCN)CC[C@@]4(C)[C@]3(C)CC[C@H]2C1(C)C | – | 1.8 µM | 3.7 µM | 2.6 µM | 2 µM | 2.3 µM |
| CC(=O)O[C@H]1CC[C@]2(C)[C@H]3CC=C4[C@@H]5[C@@H](C)[C@H](C)CC[C@]5(C(=O)N5CCNCC5)CC[C@@]4(C)[C@]3(C)CC[C@H]2C1(C)C | – | – | 1.9 µM | – | – | – |
| CC(=O)O[C@H]1CC[C@]2(C)[C@H]3CC=C4[C@@H]5CC(C)(C)CC[C@]5(C(=O)N5CCNCC5)CC[C@@]4(C)[C@]3(C)CC[C@H]2C1(C)C | – | – | 1.6 µM | – | – | – |
| C=C(C)[C@@H]1CC[C@]2(C(=O)N3CCNCC3)CC[C@]3(C)[C@H](CC[C@@H]4[C@@]5(C)CC[C@H](OC(C)=O)C(C)(C)[C@@H]5CC[C@]43C)[C@@H]12 | – | – | 1.3 µM | – | – | – |
| CC(=O)O[C@H]1CC[C@]2(C)[C@H]3CC=C4[C@@H]5CC(C)(C)CC[C@]5(C(=O)NCCN)CC[C@@]4(C)[C@]3(C)CC[C@H]2C1(C)C | – | 2 µM | 4.3 µM | 2.1 µM | 1.7 µM | 3.1 µM |
| CC(=O)O[C@H]1CC[C@]2(C)[C@H]3CC=C4[C@@H]5[C@@H](C)[C@H](C)CC[C@]5(C(=O)N5CCN(C(=O)CCC6=[N+]7C(=Cc8c(C)cc(C)n8[B-]7(F)F)C=C6)CC5)CC[C@@]4(C)[C@]3(C)CC[C@H]2C1(C)C | 21.6 µM | > 30 µM | > 30 µM | > 30 µM | 24.4 µM | > 30 µM |
| C=C(C)[C@@H]1CC[C@]2(C(=O)NCCNC(=O)CCC3=[N+]4C(=Cc5c(C)cc(C)n5[B-]4(F)F)C=C3)CC[C@]3(C)[C@H](CC[C@@H]4[C@@]5(C)CC[C@H](OC(C)=O)C(C)(C)[C@@H]5CC[C@]43C)[C@@H]12 | > 30 µM | > 30 µM | > 30 µM | > 30 µM | 11.3 µM | > 30 µM |
| C=C(C)[C@@H]1CC[C@]2(C(=O)NCCN)CC[C@]3(C)[C@H](CC[C@@H]4[C@@]5(C)CC[C@H](OC(C)=O)C(C)(C)[C@@H]5CC[C@]43C)[C@@H]12 | – | 1 µM | 1.2 µM | 1.4 µM | 1.3 µM | 1.4 µM |
| C=C(C)[C@@H]1CC[C@]2(C(=O)N3CCN(C(=O)CCC4=[N+]5C(=Cc6c(C)cc(C)n6[B-]5(F)F)C=C4)CC3)CC[C@]3(C)[C@H](CC[C@@H]4[C@@]5(C)CC[C@H](OC(C)=O)C(C)(C)[C@@H]5CC[C@]43C)[C@@H]12 | > 30 µM | > 30 µM | > 30 µM | > 30 µM | > 30 µM | > 30 µM |
| CC(=O)O[C@H]1CC[C@]2(C)[C@H]3C(=O)C=C4[C@@H]5C[C@@](C)(C(=O)NCCN)CC[C@]5(C)CC[C@@]4(C)[C@]3(C)CC[C@H]2C1(C)C | – | 4.3 µM | 5.7 µM | 4.3 µM | 3.2 µM | 2 µM |
| CC(=O)O[C@H]1CC[C@]2(C)[C@H]3C(=O)C=C4[C@@H]5C[C@@](C)(C(=O)N6CCN(C(=O)CCC7=[N+]8C(=Cc9c(C)cc(C)n9[B-]8(F)F)C=C7)CC6)CC[C@]5(C)CC[C@@]4(C)[C@]3(C)CC[C@H]2C1(C)C | 8.3 µM | > 30 µM | 8.6 µM | 9.1 µM | 7.9 µM | 7.8 µM |
| CC(=O)O[C@H]1CC[C@]2(C)[C@H]3C(=O)C=C4[C@@H]5C[C@@](C)(C(=O)N6CCNCC6)CC[C@]5(C)CC[C@@]4(C)[C@]3(C)CC[C@H]2C1(C)C | – | 4.4 µM | 8.7 µM | 8.7 µM | 8.4 µM | 8.2 µM |
| CC(=O)O[C@H]1CC[C@]2(C)[C@H]3CC=C4[C@@H]5CC(C)(C)CC[C@]5(C(=O)NCCNC(=O)CCC5=[N+]6C(=Cc7c(C)cc(C)n7[B-]6(F)F)C=C5)CC[C@@]4(C)[C@]3(C)CC[C@H]2C1(C)C | 4.3 µM | > 30 µM | 7 µM | 3.4 µM | 2.3 µM | 10.3 µM |
| C=C(C)[C@@H]1CC[C@]2(COC(=O)CCC3=[N+]4C(=Cc5c(C)cc(C)n5[B-]4(F)F)C=C3)CC[C@]3(C)[C@H](CC[C@@H]4[C@@]5(C)CC[C@H](OC(C)=O)C(C)(C)[C@@H]5CC[C@]43C)[C@@H]12 | > 30 µM | > 30 µM | > 30 µM | > 30 µM | 28.9 µM | > 30 µM |
| CC(=O)O[C@H]1CC[C@]2(C)[C@H]3C(=O)C=C4[C@@H]5C[C@@](C)(C(=O)NCCNC(=O)CCC6=[N+]7C(=Cc8c(C)cc(C)n8[B-]7(F)F)C=C6)CC[C@]5(C)CC[C@@]4(C)[C@]3(C)CC[C@H]2C1(C)C | 23.9 µM | 26.5 µM | > 30 µM | > 30 µM | 7.2 µM | 18.4 µM |
| Cc1cc(C)n2c1C=C1C=CC(CCC(=O)O)=[N+]1[B-]2(F)F | > 30 µM | > 30 µM | > 30 µM | > 30 µM | > 30 µM | > 30 µM |
| CC(=O)O[C@H]1CC[C@]2(C)[C@H]3CC=C4[C@@H]5CC(C)(C)CC[C@]5(C(=O)N5CCN(C(=O)CCC6=[N+]7C(=Cc8c(C)cc(C)n8[B-]7(F)F)C=C6)CC5)CC[C@@]4(C)[C@]3(C)CC[C@H]2C1(C)C | 29.8 µM | > 30 µM | > 30 µM | > 30 µM | > 30 µM | > 30 µM |
| CC(=O)O[C@H]1CC[C@]2(C)[C@H]3CC=C4[C@@H]5[C@@H](C)[C@H](C)CC[C@]5(C(=O)NCCNC(=O)CCC5=[N+]6C(=Cc7c(C)cc(C)n7[B-]6(F)F)C=C5)CC[C@@]4(C)[C@]3(C)CC[C@H]2C1(C)C | 4 µM | > 30 µM | 5.7 µM | 3 µM | 2.2 µM | 8.7 µM |
| C=C(C)[C@@H]1CC[C@]2(COC(C)=O)CC[C@]3(C)[C@H](CC[C@@H]4[C@@]5(C)CC[C@H](OC(=O)CCC6=[N+]7C(=Cc8c(C)cc(C)n8[B-]7(F)F)C=C6)C(C)(C)[C@@H]5CC[C@]43C)[C@@H]12 | – | 3.1 µM | 4.7 µM | 9.2 µM | 4.3 µM | 2.7 µM |
| C=C(C)[C@@H]1CC[C@]2(COC(C)=O)CC[C@]3(C)[C@H](CC[C@@H]4[C@@]5(C)CC[C@H](OC(C)=O)C(C)(C)[C@@H]5CC[C@]43C)[C@@H]12 [BETULIN DIACETATE] | > 30 µM | > 30 µM | > 30 µM | > 30 µM | > 30 µM | > 30 µM |
| C=C(C)[C@@H]1CC[C@]2(CO)CC[C@]3(C)[C@H](CC[C@@H]4[C@@]5(C)CC[C@H](O)C(C)(C)[C@@H]5CC[C@]43C)[C@@H]12 [BETULIN] | > 30 µM | > 30 µM | > 30 µM | > 30 µM | > 30 µM | > 30 µM |
| CC1(C)[C@@H](O)CC[C@]2(C)[C@H]3C(=O)C=C4[C@@H]5C[C@@](C)(C(=O)O)CC[C@]5(C)CC[C@@]4(C)[C@]3(C)CC[C@@H]12 [ENOXOLONE] | – | – | > 30 µM | – | – | – |
| CC1(C)CC[C@]2(C(=O)O)CC[C@]3(C)C(=CC[C@@H]4[C@@]5(C)CC[C@H](O)C(C)(C)[C@@H]5CC[C@]43C)[C@@H]2C1 [OLEANOLIC_ACID] | – | – | > 30 µM | – | – | > 30 µM |
| C[C@H]1[C@H](C)CC[C@]2(C(=O)O)CC[C@]3(C)C(=CC[C@@H]4[C@@]5(C)CC[C@H](O)C(C)(C)[C@@H]5CC[C@]43C)[C@H]12 [URSOLIC ACID] | – | – | – | 13.1 µM | – | – |
